Source: patent publication EP0285883A2, “Bactobolin as a prophylactic or therapeutic agent for autoimmune diseases, and as an immuno-suppressive agent” (ZAIDAN HOJIN BISEIBUTSU KAGAKU KENKYU KAI, priority 1987, dated 1988)
Several values for one entry are separate records, joined by “and”; a condition that tells them apart may be missing. Identical values can stand only once.

Assays:
[1] = tested on: Acute Experimental Autoimmune Encephalomyelitis (EAE) of Rat; experiment: Test 1: acute EAE of rat, treatment during the induction phase; format: in vivo, rats; conditions: for Incidence of EAE Number of animals affected/Number of animals tested: 0.5 mg/Kg intraperitoneal daily, observed for 16 days after immunization; for Histologic score (±SD): treatment during the inductive phase, mean of six separate sections incl. spinal cord and brain, ratings zero to 4
Protocol: To animals (rats) as sensitized with myelin basic protein/complete Freund adjuvant (hereinafter affreviated as MBP/CFA) for immunization, 0.5 mg/kg of bactobolin was administered by intraperitoneal injection daily from the next day (Day 1) of the immunization to Day 8. This administration period corresponds approximately to the induction phase of EAE.

[2] = tested on: EAE; experiment: Test 2: EAE in MBP/CFA-immunized rats, treatment during the effector phase (Day 8-14); format: in vivo; conditions: for Histologic score (±SD): treatment during the effector phase, evaluated for 15 days after the immunization
Protocol: Bactobolin was administered intraperitoneally to the MBP/CFA-immunized animals (rats) during a period (Day 8-14), which was considered to correspond primarily to the effector phase of EAE, and during this period the effects of bactobolin was estimated.

[3] = tested on: EAE; experiment: Test 3: EAE, treatment started after onset of clinical signs; format: in vivo; conditions: 0.5 mg/Kg i.p., started on the day of the first clinical sign
Protocol: A study was conducted to determine whether the intraperitoneal administration of bactobolin made after the incidence of EAE was therapeutically effective, or not.

[4] = tested on: Passively Induced EAE; experiment: Test 4: passively induced EAE (transfer of precultured spleen cells); format: in vivo, rats; conditions: 0.5 mg/Kg, sacrificed Day 9 P.I.
[5] = tested on: lymph node cells; experiment: Test 5: lymphocyte proliferative responses of lymph node cells from treated rats (tritiated thymidine uptake); format: in vivo
Protocol: Using lymph node cells which were separately collected separately from control rats and from the bactobolin-intraperitoneally administered rats on Day 11 (the 11th day after the sensitization), the lymphocyte proliferative responses to specific antigen, as well as the response to Con A were assessed.
Note 1:- Animals belonging to Bactobolin-administered group were daily intraperitoneally with 0.5mg/kg of bactobolin from Day 1 P.I. to Day 8 P.I., and the control animals were treated with PBS. Note 2:-Lymph node cells were obtained from control and bactobolin-treated rats 11 days after the sensitization. These lymphoid cells were cultured with GPBP (10 µg/mℓ), PPD (10 µg/mℓ) or Con A (2 µg/mℓ) for 3 days. The proliferative responses were assessed by measuring the uptake of tritiated thymidine.
In the above, CPM means the measured number of count per minute; MBP means myelin basic protein; PPD means a purified protein derivative; and Con A means concanavalin A.

[6] = tested on: mouse; conditions: in mouse, intravenous; cited from earlier work

C[C@H](N)C(=O)N[C@@H]1[C@H]2C(=C(O)C[C@@H](O)[C@@H]2O)C(=O)O[C@]1(C)C(Cl)Cl [Bactobolin, bactobolin]
Paralysis score (±SD) ([1]; 0.5 mg/Kg i.p. daily, Day 1-8 (induction phase), sum of the scores daily estimated during the disease): 0 ± 0 | Incidence of EAE Number of animals affected/Number of animals tested ([1]; Day 1-8 (induction phase)): 0/5 | Incidence of EAE Number of animals affected/Number of animals tested ([1]; Day 1-8 (induction phase), listed as bactobolin): none of the rats developed EAE | Histologic score (±SD) [1]: 0.5 ± 0.6 | Histologic score (±SD) ([1]; listed as bactobolin): suppresses histologic EAE markedly | Paralysis score (±SD) ([2]; 0.5 mg/Kg i.p., effector phase, Day 8-14, sacrificed on Day 15 P.I.): 0 ± 0 | Incidence of EAE (number of animals affected number of animals tested) ([2]; 0.5 mg/Kg i.p., effector phase, Day 8-14 after the immunization): suppressed the incidence of EAE markedly and 0/5 | Histologic score (±SD) [2]: 0.1 ± 0.1 | Histologic score (±SD) ([2]; listed as bactobolin): suppressed histologic lesion markedly | Paralysis score (±SD) [3]: 4.6 ± 1.2 | Whole duration of illness (days ± SD) [3]: 4.4 ± 1.0 days | Paralysis score (±SD) ([3]; listed as bactobolin): suppressed significantly | Whole duration of illness (days ± SD) ([3]; listed as bactobolin): no substantial influences were observed | Paralysis score (±SD) ([4]; recipients administered Day 1 to Day 8 P.I.): 0 ± 0 | Incidence of EAE (days ± SD) ([4]; recipients of 2x10^7 precultured spleen cells, administered Day 1 to Day 8 P.I.): suppressed the incidence of passively induced EAE markedly and 0/2 | CPM ± SD (uptake of tritiated thymidine) ([5]; Con A (2 µg/mℓ), 0.5mg/kg i.p. daily Day 1-8 P.I., cells taken 11 days after sensitization, cultured 3 days): suppressed | lymphocyte proliferative responses to specific antigen ([5]; lymph node cells of the bactobolin-administered group, Day 11, result in words): No lymphocyte proliferative responses to specific antigen were observed | acute LD50 toxicity [6]: 6.25 to 12.5 mg/kg
